Data on eight compounds can be found in patent US6495528B1 (SmithKline Beecham Corporation, priority 1998, dated 2002).

Format in all cases: cell-based
For test [1], the target named is T1, human adenosine 2a receptor (Homo sapiens, UniProt P29274).
T1 construct: expressed in transfected cells; host or cells: Chinese hamster ovary (CHO) cells, also transfected with a CRE-SPAP reporter
Briefly: Agonist activity at adenosine 2a receptor, CHO cells with CRE-SPAP reporter (basal cAMP). To be noted: CHO cells transfected with human A2a receptor; effect on basal cAMP via SPAP; ratio to NECA; minimum values (about 20% inactive impurity). As for the experimental part:
(§1) (1) Agonist activity against adenosine 2a, adenosine 1 and adenosine 3 receptor subtypes.
(§2) Agonist selectivity of compounds against other human adenosine receptors is determined using Chinese hamster ovary (CHO) cells transfected with the gene for the relevant human adenosine receptor following a method based on that of Castanon and Spevak, 1994. The CHO cells are also transfected with cyclic AMP response elements promoting the gene for secreted placental alkaline phosphatase (SPAP) (Wood, 1995). The effect of test compounds is determined by their effects on basal levels of cAMP (A2a ) or on forskolin-enhanced cAMP (A1 and A3) as reflected by changes in levels of SPAP. EC50 values for compounds are then determined as a ratio to that of the non-selective agonist N-ethyl carboxamide adenosine (NECA).

Test [2] addresses T2, human adenosine 1 receptor (Homo sapiens, UniProt P30542).
T2 construct: expressed in transfected cells; host or cells: Chinese hamster ovary (CHO) cells, also transfected with a CRE-SPAP reporter
T2 sequence (P30542 1-326): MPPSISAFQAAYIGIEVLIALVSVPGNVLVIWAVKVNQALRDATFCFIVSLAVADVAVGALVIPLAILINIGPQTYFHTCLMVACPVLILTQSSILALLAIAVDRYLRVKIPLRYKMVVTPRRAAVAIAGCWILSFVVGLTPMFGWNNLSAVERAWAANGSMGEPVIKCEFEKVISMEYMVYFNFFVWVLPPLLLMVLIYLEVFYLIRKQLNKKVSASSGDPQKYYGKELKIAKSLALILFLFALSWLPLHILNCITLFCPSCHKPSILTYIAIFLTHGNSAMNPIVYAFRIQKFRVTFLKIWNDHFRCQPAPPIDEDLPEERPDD
Briefly: Agonist activity at adenosine 1 receptor, CHO cells with CRE-SPAP reporter (forskolin-enhanced cAMP). The conditions noted are these: CHO cells transfected with human A1 receptor; effect on forskolin-enhanced cAMP via SPAP; ratio to NECA; minimum values (about 20% inactive impurity). On the procedure: as §1, §2

For test [3], the target named is T3, human adenosine 3 receptor (Homo sapiens, UniProt P0DMS8).
T3 construct: expressed in transfected cells; host or cells: Chinese hamster ovary (CHO) cells, also transfected with a CRE-SPAP reporter
T3 sequence (P0DMS8 1-318): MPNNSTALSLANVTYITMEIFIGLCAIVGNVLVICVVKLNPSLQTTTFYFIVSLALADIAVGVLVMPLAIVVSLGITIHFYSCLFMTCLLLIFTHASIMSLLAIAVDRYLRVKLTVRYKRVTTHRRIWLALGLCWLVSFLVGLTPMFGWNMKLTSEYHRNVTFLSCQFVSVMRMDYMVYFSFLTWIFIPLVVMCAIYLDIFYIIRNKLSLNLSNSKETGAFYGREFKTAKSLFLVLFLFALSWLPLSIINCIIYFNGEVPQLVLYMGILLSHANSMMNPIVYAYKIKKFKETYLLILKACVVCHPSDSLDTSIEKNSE
Briefly: Agonist activity at adenosine 3 receptor, CHO cells with CRE-SPAP reporter (forskolin-enhanced cAMP). The conditions noted are these: CHO cells transfected with human A3 receptor; effect on forskolin-enhanced cAMP via SPAP; ratio to NECA; minimum values (about 20% inactive impurity). As for the experimental part: as §1, §2

T1 sequence (P29274 whole entry): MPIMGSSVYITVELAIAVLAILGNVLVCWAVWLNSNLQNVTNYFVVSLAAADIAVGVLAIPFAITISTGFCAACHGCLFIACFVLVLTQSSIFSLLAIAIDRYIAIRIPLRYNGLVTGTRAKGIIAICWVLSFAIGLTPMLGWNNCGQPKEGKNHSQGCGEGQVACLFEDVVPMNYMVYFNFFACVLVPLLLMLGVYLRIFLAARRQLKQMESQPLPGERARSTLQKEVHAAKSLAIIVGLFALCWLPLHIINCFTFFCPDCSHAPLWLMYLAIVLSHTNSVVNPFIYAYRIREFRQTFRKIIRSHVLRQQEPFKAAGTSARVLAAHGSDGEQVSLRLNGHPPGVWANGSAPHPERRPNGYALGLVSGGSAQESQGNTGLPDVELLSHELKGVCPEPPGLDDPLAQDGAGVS

In the case of `OCCCn1nnc(C2OC(n3cnc4c(NCC(c5ccccc5)c5ccccc5)nc(NCCN5CCCCC5)nc43)C(O)C2O)n1` [Example 1, 2R,3R,4S,5R)-2-[6-(2,2-Diphenyl-ethylamino)-2-(2-piperidin-1-yl-ethylamino)-purin-9-yl]-5-[2-(3-hydroxy-propyl)-2H-tetrazol-5-yl]-tetrahydro-furan-3,4-diol bis(trifluoroacetate)], the “A2a EC50 as a ratio of that of NECA” value in test [1] worked out at 22.64. Also, in test [2], the “A1 EC50 as a ratio of that of NECA” value was found to be 434.8. Moreover, the “A3 EC50 as a ratio of that of NECA” value in test [3] is given as more than 93.

In the case of `CCCn1nnc(C2OC(n3cnc4c(NCC(c5ccccc5)c5ccccc5)nc(NCCN5CCCCC5)nc43)C(O)C2O)n1` [Example 2, 2R,3R,4S,5R)-2-[6-(2,2-Diphenyl-ethylamino)-2-(2-piperidin-1-yl-ethylamino)-purin-9-yl]-5-(2-propyl-2H-tetrazo-5-tetrahydro-furan-3,4-diol bis(trifluoroacetate)], the “A2a EC50 as a ratio of that of NECA” value in test [1] amounted to 30.95. In addition, the “A1 EC50 as a ratio of that of NECA” value in test [2] is recorded as 755.4. For the same compound, the “A3 EC50 as a ratio of that of NECA” value in test [3] is more than 93.

Take `CC(=O)OCCn1nnc(C2OC(n3cnc4c(NCC(c5ccccc5)c5ccccc5)nc(NCCN5CCCCC5)nc43)C(O)C2O)n1` (stereo not drawn) [Example 3, Acetic acid 2-(5-{5R-[6-(2,2-diphenyl-ethylamino)-2-(2-piperidin-1-yl-ethylamino)-purin-9-yl]-3S,4R-dihydroxy-tetrahydro-furan-2R -yl}-tetrazol-2-yl)-ethyl ester bis(trifluoroacetate)]: the “A2a EC50 as a ratio of that of NECA” value in test [1] worked out at 16.59. Besides, in test [2], the “A1 EC50 as a ratio of that of NECA” value is given as 310.5. Further, the “A3 EC50 as a ratio of that of NECA” value in test [3] is on record as more than 93.

For `O=C(O)C(F)(F)F.O=C(O)C(F)(F)F.O[C@@H]1[C@H](O)[C@@H](c2nnn(CC3CC3)n2)O[C@H]1n1cnc2c(NCC(c3ccccc3)c3ccccc3)nc(NCCN3CCCCC3)nc21` [Example 4], the “A2a EC50 as a ratio of that of NECA” value in test [1] was determined as 37.24. The “A1 EC50 as a ratio of that of NECA” value in test [2] came out at 1318.09. Moreover, the “A3 EC50 as a ratio of that of NECA” value in test [3] is recorded as more than 93.

Regarding `OCCn1nnc(C2OC(n3cnc4c(NCC(c5ccccc5)c5ccccc5)nc(NCCN5CCCCC5)nc43)C(O)C2O)n1` [Example 5, (2R,3R,4S,5R)-2-[6-(2,2-Diphenyl-ethylamino)-2-(2-piperidin-1-yl-ethylamino)-purin-9-yl]-5-[2-(2-hydroxy-ethyl)-2H-tetrazo-5-yl]-tetrahydro-furan-3,4-diol bis(trifluoroacetate)], the “A2a EC50 as a ratio of that of NECA” value in test [1] worked out at 10.54. The “A1 EC50 as a ratio of that of NECA” value in test [2] was 159.5. The “A3 EC50 as a ratio of that of NECA” value in test [3] was more than 94.

For `O=C(O)C(F)(F)F.O=C(O)C(F)(F)F.O[C@@H]1[C@H](O)[C@@H](c2nnn(CCCl)n2)O[C@H]1n1cnc2c(NCC(c3ccccc3)c3ccccc3)nc(NCCN3CCCCC3)nc21` [Example 6], in test [1], the “A2a EC50 as a ratio of that of NECA” value was 24.05. For the same compound, the “A1 EC50 as a ratio of that of NECA” value in test [2] is given as 411.9. Moreover, the “A3 EC50 as a ratio of that of NECA” value in test [3] is reported as more than 97.

For the compound `O=C(O)C(F)(F)F.O=C(O)C(F)(F)F.O[C@@H]1[C@H](O)[C@@H](c2nnn(C3CCC3)n2)O[C@H]1n1cnc2c(NCC(c3ccccc3)c3ccccc3)nc(NCCN3CCCCC3)nc21` [Example 7], the “A2a EC50 as a ratio of that of NECA” value in test [1] was found to be 22.98. In addition, the “A1 EC50 as a ratio of that of NECA” value in test [2] is listed as 597.82. Further, the “A3 EC50 as a ratio of that of NECA” value in test [3] was more than 95.

`C=CCn1nnc(C2OC(n3cnc4c(NCC(c5ccccc5)c5ccccc5)nc(NCCN5CCCCC5)nc43)C(O)C2O)n1` [Example 8, (2R,3S,4R,5R)-2-(2-Allyl 2H-tetrazol-5-[6-(2,2-diphenyl-ethylamino)-2-(2-piperidin-1-yl-ethylamino)-purin-9-yl]-tetrahydro-furan-3,4-diolbis(trifluoroacetate)]: the “A2a EC50 as a ratio of that of NECA” value in test [1] was 26.38. The “A1 EC50 as a ratio of that of NECA” value in test [2] is reported as more than 6131. In addition, the “A3 EC50 as a ratio of that of NECA” value in test [3] is reported as more than 165.
